{"source": "patent US20060148710A1", "about": "“Oligopeptides, composition and use thereof as elicitors of the natural defences of plants” (DE Sangosse SA, priority 2003, published 2006)", "key": {"Zucchini plants": {"test_system": "Zucchini plants", "assay": "Peroxydasic activity in treated zucchini plants", "format": "in vivo", "conditions": "for Peroxydasic activity / Percent of peroxydasic activity relative to the product: zucchini plants aged 3 weeks, product 3.5 mg/L; for Percent of peroxydasic activity relative to the product: product 6 = 100%; for elicitor activity: zucchini plants, comparison in words", "description": "(§1) a) Measurement of the Peroxydasic Acttivity (Enzyme Endogenous to Plants)\n(§2) Given the primordial role of the peroxydases in the resistance of plants, we have used the peroxydasic activity as a marker of the resistance following treatments by elicitors.\n(§3) So as to measure the peroxydasic activities, leaves are crushed in a citrate-monohydrogeno-phosphate-disodium buffer. The extract is then placed in gaiacol and oxygenated water. A rapid reaction takes place: the gaiacol is transformed into tetragaiacol. The appearance of tetragaiacol in the medium permits us to calculate the peroxydasic activity.\n(§4) Measurements are carried out in this same buffer by using the gaiacol as substrate. The results are expressed in ΔDO/mn/g of fresh material.\n(§5) All the plants tested are young plants obtained from seed or by slipping. Pulverization is effected of the formulations obtained from oligopeptides. These formulations contain various wetting or penetrating agents capable of carrying the active material (oligopeptides) to the cells.\nZucchini plants aged 3 weeks have been treated with oligopeptides."}, "tobacco plants": {"test_system": "tobacco plants", "conditions": "10 mM; cited from earlier work"}, "Grape plants [1]": {"test_system": "Grape plants", "assay": "Chitinasic activity in treated grape plants", "format": "in vivo", "conditions": "grape plants aged 3 weeks", "experimental": "b) Measurement of the Chitinasic Activity\nSo as to verify that the mechanisms of resistance are triggered, we have also measured an enzymatic activity appearing in the situations of resistance: the chitinasic activity (enzyme synthesis upon attack of the parasites, which degrades chitin, constituting the walls of the phytopathogenic mushrooms).\nColormetric reaction used: there is used an acetate buffer:\nSolution of chitin+enzymatic extract+acetate buffer qsp 0.5 ml (blue at 2 mg/ml) crude 50 mM-(pH5) (100 microliters)\nincubation for 30 minutes at 37° C., and under continuous agitation.\nthe reaction is stopped by addition of a solution of HCL 1N\ncolormetric or spectrophotometric measurement at 550 nm\nThe chitinasic activity is expressed as ΔDO/mn/g of fresh material.\nas §5\n(§6) Grape plants aged 3 weeks have been treated with oligopeptides. The results obtained are assembled in Tables II, III (Sheet 1/2)."}, "Grape plants [2]": {"test_system": "Grape plants", "assay": "Peroxydasic activity in treated grape plants", "format": "in vivo", "conditions": "grape plants aged 3 weeks", "description": "as §1, §2, §3, §4, §5, §6"}}, "note": "Where “and” joins values, the source holds several entries; their conditions need not be identical. Equal values may be shown once.", "data": [{"compound": "CC(C)(N)C(=O)O", "note": "[Aib, α-aminoisobutyric acid, reference compound]", "values": [{"measurement": "Peroxydasic activity", "setting": "Zucchini plants", "value": "53.1 ΔDO/min/aMF"}, {"measurement": "Percent of peroxydasic activity relative to the product", "setting": "Zucchini plants", "value": 15.26, "unit": "%"}]}, {"compound": "C[C@H](N)C(=O)O", "note": "[Alanine, reference compound]", "values": [{"measurement": "Peroxydasic activity", "setting": "Zucchini plants", "value": "65.78 ΔDO/min/aMF"}, {"measurement": "Percent of peroxydasic activity relative to the product", "setting": "Zucchini plants", "value": 18.9, "unit": "%"}]}, {"compound": "CC(N)CO", "note": "(centres unmarked) [Alininol, Alaninol, reference compound]", "values": [{"measurement": "Peroxydasic activity", "setting": "Zucchini plants", "value": "69.46 ΔDO/min/aMF"}, {"measurement": "Percent of peroxydasic activity relative to the product", "setting": "Zucchini plants", "value": 19.96, "unit": "%"}, {"measurement": "elicitor activity", "setting": "Zucchini plants", "value": "most active of the residues tested"}]}, {"compound": "NCCCC(=O)O", "note": "[GABA, γ-aminobutyric acid, reference compound]", "values": [{"measurement": "Peroxydasic activity", "setting": "Zucchini plants", "value": "49.1 ΔDO/min/aMF"}, {"measurement": "Percent of peroxydasic activity relative to the product", "setting": "Zucchini plants", "value": 14.11, "unit": "%"}, {"measurement": "capacity to trigger the ARS", "setting": "tobacco plants", "value": "totally inactive"}]}, {"compound": "CCC(N)C(=O)O", "note": "(stereo not drawn) [α-aminobutyric acid]", "values": [{"measurement": "capacity to trigger the ARS", "setting": "tobacco plants", "value": "less active"}]}, {"compound": "CC(N)CC(=O)O", "note": "(stereo not drawn) [β-aminobutyric acid]", "values": [{"measurement": "capacity to trigger the ARS", "setting": "tobacco plants", "value": "active"}]}, {"compound": "H-Ala1-Ala-ol [Product 7]", "values": [{"measurement": "Peroxydasic activity", "setting": "Zucchini plants", "value": "99.16 ΔDO/min/aMF"}, {"measurement": "Percent of peroxydasic activity relative to the product", "setting": "Zucchini plants", "value": 28.49, "unit": "%"}]}, {"compound": "H-Ala2-Ala-ol [Product 8]", "values": [{"measurement": "Peroxydasic activity", "setting": "Zucchini plants", "value": "94.6 ΔDO/min/aMF"}, {"measurement": "Percent of peroxydasic activity relative to the product", "setting": "Zucchini plants", "value": 27.18, "unit": "%"}]}, {"compound": "H-Ala3-Ala-ol [Product 9]", "values": [{"measurement": "Peroxydasic activity", "setting": "Zucchini plants", "value": "112 ΔDO/min/aMF"}, {"measurement": "Percent of peroxydasic activity relative to the product", "setting": "Zucchini plants", "value": 32.18, "unit": "%"}]}, {"compound": "H-Ala4-Ala-ol [Product 10]", "values": [{"measurement": "Peroxydasic activity", "setting": "Zucchini plants", "value": "194 ΔDO/min/aMF"}, {"measurement": "Percent of peroxydasic activity relative to the product", "setting": "Zucchini plants", "value": 55.74, "unit": "%"}]}, {"compound": "H-Ala5-Ala-ol [Product 11]", "values": [{"measurement": "Peroxydasic activity", "setting": "Zucchini plants", "value": "102 ΔDO/min/aMF"}, {"measurement": "Percent of peroxydasic activity relative to the product", "setting": "Zucchini plants", "value": 29.31, "unit": "%"}]}, {"compound": "H-Ala6-Ala-OH [Product 12]", "values": [{"measurement": "Peroxydasic activity", "setting": "Zucchini plants", "value": "175 ΔDO/min/aMF"}, {"measurement": "Percent of peroxydasic activity relative to the product", "setting": "Zucchini plants", "value": "50% and 50.28%"}]}, {"compound": "H-Alan-Ala-OH [Product 13]", "values": [{"measurement": "Chitinasic activity", "setting": "Grape plants [1]", "value": "65.3 ΔDO/mn/g of fresh material"}, {"measurement": "Percent of chitinasic activity relative to the most active product", "setting": "Grape plants [1]", "value": 100, "unit": "%"}, {"measurement": "Percent of peroxydasic activity relative to the most active product", "setting": "Grape plants [2]", "value": 59.49, "unit": "%"}, {"measurement": "Peroxydasic activity", "setting": "Grape plants [2]", "value": "136.6 ΔDO/mn/g of fresh material"}]}, {"compound": "H-Alan-Ala-ol [Product 6]", "values": [{"measurement": "Chitinasic activity", "setting": "Grape plants [1]", "value": "45.4 ΔDO/mn/g of fresh material"}, {"measurement": "Percent of chitinasic activity relative to the most active product", "setting": "Grape plants [1]", "value": 80.94, "unit": "%"}, {"measurement": "Percent of peroxydasic activity relative to the most active product", "setting": "Grape plants [2]", "value": 81.66, "unit": "%"}, {"measurement": "Peroxydasic activity", "setting": "Grape plants [2]", "value": "187.5 ΔDO/mn/g of fresh material"}, {"measurement": "Peroxydasic activity", "setting": "Zucchini plants", "value": "348 ΔDO/min/aMF"}, {"measurement": "Percent of peroxydasic activity relative to the product", "setting": "Zucchini plants", "value": 100, "unit": "%"}, {"measurement": "elicitor activity", "setting": "Zucchini plants", "value": "strongest elicitor activity"}]}]}
